Laboratory results taken from ChEMBL document CHEMBL2034904, “A new series of N5 derivatives of the 1,1,5-trimethyl furo[3,4-c]pyridine-3,4-dione (cerpegin) selectively inhibits the post-acid activity of mammalian 20S proteasomes” (Bioorg Med Chem Lett, 2012).
Activity calls are given as the source filed them. The rule behind the calls is not given here.

Test system: not listed separately
Assay: Inhibition of chymotrypsin-like activity of 20S proteasome catalytic core from rabbit erythrocytes using Suc-LLVY-AMC as substrate preincubated for 15 mins prior to substrate addition measured after 45 mins
Set-up: species or system Oryctolagus cuniculus
Details: not given

IC50 | SMILES
8 µM | CC1(C)OC(=O)c2c1ccn(NC(N)=S)c2=O

Target: not listed separately
Assay: Inhibition of caspase-like activity of 20S proteasome catalytic core from rabbit erythrocytes using Z-LLE-NA as substrate preincubated for 15 mins prior to substrate addition measured after 45 mins
Set-up: species or system Oryctolagus cuniculus
Details: not given

IC50 | SMILES
69.8 µM | CC1(C)OC(=O)c2c1ccn(CC(O)CN1CCN(Cc3ccccc3)CC1)c2=O (stereo unspecified)
10.7 µM | CC1(C)OC(=O)c2c1ccn(NC(N)=S)c2=O
6.1 µM | CCN(CC)CC(O)Cn1ccc2c(c1=O)C(=O)OC2(C)C (stereo unspecified)
4.9 µM | CC1(C)OC(=O)c2c1ccn(CCc1ccccc1Cl)c2=O
13.3 µM | CCOC(=O)Cn1ccc2c(c1=O)C(=O)OC2(C)C
71.9 µM | CC1(C)OC(=O)c2c1ccn(CCCN1CCOCC1)c2=O
29.3 µM | CC1(C)OC(=O)c2c1ccn(Cc1ccc(Cl)cc1Cl)c2=O
6.1 µM | CC1(C)OC(=O)c2c1ccn(CC(O)CN1CCCCC1)c2=O (stereo unspecified)
10.4 µM | Cn1ccc2c(c1=O)C(=O)OC2(C)C [CERPEGIN]
7 µM | CC1(C)OC(=O)c2c1ccn(Cc1ccncc1)c2=O
4.9 µM | CC1(C)OC(=O)c2c1ccn(CC(O)CO)c2=O (stereo unspecified)
12.1 µM | CC1(C)OC(=O)c2c1ccn(CCO)c2=O
76.8 µM | CC1(C)OC(=O)c2c1ccn(CCCn1ccnc1)c2=O
48.7 µM | CC1(C)OC(=O)c2c1ccn(CCc1ccccc1)c2=O

Test system: not listed separately
Assay: Inhibition of trypsin-like activity of 20S proteasome catalytic core from rabbit erythrocytes using Boc-LRR-AMC as substrate preincubated for 15 mins prior to substrate addition measured after 45 mins
Set-up: species or system Oryctolagus cuniculus
Details: not given

IC50 | SMILES
10.1 µM | CC1(C)OC(=O)c2c1ccn(NC(N)=S)c2=O
90 µM | CCN(CC)CC(O)Cn1ccc2c(c1=O)C(=O)OC2(C)C (stereo unspecified)

Species on record: Oryctolagus cuniculus
Assay: Inhibition of chymotrypsin-like activity of 20S proteasome catalytic core from rabbit erythrocytes using Suc-LLVY-AMC as substrate at 100 uM preincubated for 15 mins prior to substrate addition measured after 45 mins
Details: not given

inhibition | SMILES
inactive | CC1(C)OC(=O)c2c1ccn(CC(O)CN1CCN(Cc3ccccc3)CC1)c2=O (stereo unspecified)
inactive | CCN(CC)CC(O)Cn1ccc2c(c1=O)C(=O)OC2(C)C (stereo unspecified)
inactive | CC1(C)OC(=O)c2c1ccn(CCc1ccccc1Cl)c2=O
inactive | CCOC(=O)Cn1ccc2c(c1=O)C(=O)OC2(C)C
inactive | CC1(C)OC(=O)c2c1ccn(CCCN1CCOCC1)c2=O
inactive | CC1(C)OC(=O)c2c1ccn(Cc1ccc(Cl)cc1Cl)c2=O
inactive | CC1(C)OC(=O)c2c1ccn(CC(O)CN1CCCCC1)c2=O (stereo unspecified)
inactive | Cn1ccc2c(c1=O)C(=O)OC2(C)C [CERPEGIN]
inactive | CC1(C)OC(=O)c2c1ccn(Cc1ccncc1)c2=O
inactive | CC1(C)OC(=O)c2c1ccn(CC(O)CO)c2=O (stereo unspecified)
inactive | CC1(C)OC(=O)c2c1ccn(CCO)c2=O
inactive | CC1(C)OC(=O)c2c1ccn(CCCn1ccnc1)c2=O
inactive | CC1(C)OC(=O)c2c1ccn(CCc1ccccc1)c2=O

Species on record: Oryctolagus cuniculus
Assay: Inhibition of trypsin-like activity of 20S proteasome catalytic core from rabbit erythrocytes using Boc-LRR-AMC as substrate at 100 uM preincubated for 15 mins prior to substrate addition measured after 45 mins
Details: not given

inhibition | SMILES
inactive | CC1(C)OC(=O)c2c1ccn(CC(O)CN1CCN(Cc3ccccc3)CC1)c2=O (stereo unspecified)
40% | CC1(C)OC(=O)c2c1ccn(CCc1ccccc1Cl)c2=O
inactive | CCOC(=O)Cn1ccc2c(c1=O)C(=O)OC2(C)C
inactive | CC1(C)OC(=O)c2c1ccn(CCCN1CCOCC1)c2=O
inactive | CC1(C)OC(=O)c2c1ccn(Cc1ccc(Cl)cc1Cl)c2=O
inactive | CC1(C)OC(=O)c2c1ccn(CC(O)CN1CCCCC1)c2=O (stereo unspecified)
inactive | Cn1ccc2c(c1=O)C(=O)OC2(C)C [CERPEGIN]
inactive | CC1(C)OC(=O)c2c1ccn(Cc1ccncc1)c2=O
inactive | CC1(C)OC(=O)c2c1ccn(CC(O)CO)c2=O (stereo unspecified)
inactive | CC1(C)OC(=O)c2c1ccn(CCO)c2=O
inactive | CC1(C)OC(=O)c2c1ccn(CCCn1ccnc1)c2=O
22.6% | CC1(C)OC(=O)c2c1ccn(CCc1ccccc1)c2=O

Test system: not listed separately
Assay: (§1) Inhibition of chymotrypsin-like activity of 20S proteasome catalytic core from human erythrocytes using Suc-LLVY-AMC as substrate preincubated for 15 mins prior to substrate addition measured after 45 mins
Details: not given

IC50 | SMILES
8.4 µM | CC1(C)OC(=O)c2c1ccn(NC(N)=S)c2=O

Species on record: Homo sapiens
Assay: as §1
Details: not given

inhibition | SMILES
inactive | CC1(C)OC(=O)c2c1ccn(Cc1ccncc1)c2=O
inactive | CC1(C)OC(=O)c2c1ccn(CCc1ccccc1)c2=O

Target: not listed separately
Assay: Inhibition of caspase-like activity of 20S proteasome catalytic core from human erythrocytes using Z-LLE-NA as substrate preincubated for 15 mins prior to substrate addition measured after 45 mins
Details: not given

IC50 | SMILES
9.7 µM | CC1(C)OC(=O)c2c1ccn(NC(N)=S)c2=O
7.9 µM | CC1(C)OC(=O)c2c1ccn(Cc1ccncc1)c2=O
45.7 µM | CC1(C)OC(=O)c2c1ccn(CCc1ccccc1)c2=O

Test system: not listed separately
Assay: (§2) Inhibition of trypsin-like activity of 20S proteasome catalytic core from human erythrocytes using Boc-LRR-AMC as substrate preincubated for 15 mins prior to substrate addition measured after 45 mins
Details: not given

IC50 | SMILES
10.2 µM | CC1(C)OC(=O)c2c1ccn(NC(N)=S)c2=O

Species on record: Homo sapiens
Assay: as §2
Details: not given

inhibition | SMILES
inactive | CC1(C)OC(=O)c2c1ccn(Cc1ccncc1)c2=O

Species on record: Homo sapiens
Assay: Inhibition of trypsin-like activity of 20S proteasome catalytic core from human erythrocytes using Boc-LRR-AMC as substrate at 100 uM preincubated for 15 mins prior to substrate addition measured after 45 mins
Details: not given

inhibition | SMILES
25.3% | CC1(C)OC(=O)c2c1ccn(CCc1ccccc1)c2=O

Species on record: Oryctolagus cuniculus
Assay: Inhibition of rabbit 20S proteasome chymotrypsin-like activity using […] as substrate at 10 to 50 uM
Details: TDE = time-dependent effect

inhibition | SMILES
tde | CC1(C)OC(=O)c2c1ccn(NC(N)=S)c2=O

Species on record: Oryctolagus cuniculus
Assay: Irreversible inhibition of rabbit 20S proteasome chymotrypsin-like activity using […] as substrate at 10 to 50 uM from 5 to 60 mins
Details: not given

inhibition | SMILES
Active | CC1(C)OC(=O)c2c1ccn(NC(N)=S)c2=O

Target: Cathepsin B (Homo sapiens) (UniProt P07858)
Assay: Inhibition of cathepsin B from human hepatocytes using […] as substrate
Details: Hepatocyte

inhibition | SMILES
inactive | CC1(C)OC(=O)c2c1ccn(CC(O)CN1CCN(Cc3ccccc3)CC1)c2=O (stereo unspecified)
inactive | CC1(C)OC(=O)c2c1ccn(NC(N)=S)c2=O
inactive | CCN(CC)CC(O)Cn1ccc2c(c1=O)C(=O)OC2(C)C (stereo unspecified)
inactive | CC1(C)OC(=O)c2c1ccn(CCc1ccccc1Cl)c2=O
inactive | CCOC(=O)Cn1ccc2c(c1=O)C(=O)OC2(C)C
inactive | CC1(C)OC(=O)c2c1ccn(CCCN1CCOCC1)c2=O
inactive | CC1(C)OC(=O)c2c1ccn(Cc1ccc(Cl)cc1Cl)c2=O
inactive | CC1(C)OC(=O)c2c1ccn(CC(O)CN1CCCCC1)c2=O (stereo unspecified)
inactive | Cn1ccc2c(c1=O)C(=O)OC2(C)C [CERPEGIN]
inactive | CC1(C)OC(=O)c2c1ccn(Cc1ccncc1)c2=O
inactive | CC1(C)OC(=O)c2c1ccn(CC(O)CO)c2=O (stereo unspecified)
inactive | CC1(C)OC(=O)c2c1ccn(CCO)c2=O
inactive | CC1(C)OC(=O)c2c1ccn(CCCn1ccnc1)c2=O
inactive | CC1(C)OC(=O)c2c1ccn(CCc1ccccc1)c2=O

Species on record: Homo sapiens
Assay: Inhibition of calpain-1 from human erythrocytes using […] as substrate
Details: not given

inhibition | SMILES
inactive | CC1(C)OC(=O)c2c1ccn(CC(O)CN1CCN(Cc3ccccc3)CC1)c2=O (stereo unspecified)
inactive | CC1(C)OC(=O)c2c1ccn(NC(N)=S)c2=O
inactive | CCN(CC)CC(O)Cn1ccc2c(c1=O)C(=O)OC2(C)C (stereo unspecified)
inactive | CC1(C)OC(=O)c2c1ccn(CCc1ccccc1Cl)c2=O
inactive | CCOC(=O)Cn1ccc2c(c1=O)C(=O)OC2(C)C
inactive | CC1(C)OC(=O)c2c1ccn(CCCN1CCOCC1)c2=O
inactive | CC1(C)OC(=O)c2c1ccn(Cc1ccc(Cl)cc1Cl)c2=O
inactive | CC1(C)OC(=O)c2c1ccn(CC(O)CN1CCCCC1)c2=O (stereo unspecified)
inactive | Cn1ccc2c(c1=O)C(=O)OC2(C)C [CERPEGIN]
inactive | CC1(C)OC(=O)c2c1ccn(Cc1ccncc1)c2=O
inactive | CC1(C)OC(=O)c2c1ccn(CC(O)CO)c2=O (stereo unspecified)
inactive | CC1(C)OC(=O)c2c1ccn(CCO)c2=O
inactive | CC1(C)OC(=O)c2c1ccn(CCCn1ccnc1)c2=O
inactive | CC1(C)OC(=O)c2c1ccn(CCc1ccccc1)c2=O
